# Source: patent US6525032B2, “Purine derivatives” (Pfizer Inc, priority 2000, dated 2003)
# Test system: neutrophils activated by fMLP
# Experiment: superoxide production from human neutrophils activated by fMLP (cytochrome C reduction)
# Format: cell-based
# Conditions: Neutrophil; fMLP-induced superoxide production, neutrophils from human peripheral blood, cytochalasin B priming, adenosine deaminase present; read-out: IC50 (concentration giving 50% inhibition compared to the control response to fMLP)
# Experimental: This is evaluated by determining the compound profile in an assay where superoxide production was measured from neutrophils activated by fMLP. Neutrophils were isolated from human peripheral blood using dextran sedimentation followed by centrifugation through Ficoll-Hypaque solution. Any contaminating erythrocytes in the granulocyte pellet were removed by lysis with ice-cold distilled water. Superoxide production from the neutrophils was induced by fMLP in the presence of a priming concentration of cytochalasin B. Adenosine deaminase was included in the assay to remove any endogenously produced adenosine that might suppress superoxide production. The effect of the compound on the fMLP-induced response was monitored colorometrically from the reduction of cytochrome C within the assay buffer. The potency of the compounds was assessed by the concentration giving 50% inhibition (IC50) compared to the control response to fMLP.
row,SMILES,IC50
1,"CCNC(=O)[C@H]1O[C@@H](n2cnc3c(NCC(c4ccccc4)c4ccccc4)nc(C(=O)NCCCN4CCCC4)nc32)[C@H](O)[C@@H]1O [Example 7, 6-[(2,2-diphenylethyl)amino]-9-{(2R,3R,4S,5S)-5-[(ethylamino)carbonyl]-3,4-dihydroxytetrahydro-2-furanyl}-N-[3-(1-pyrrolidinyl)propyl]-9H-purine-2-carboxamide]",< 40 nM
2,"CCNC(=O)[C@H]1O[C@@H](n2cnc3c(NC(CC)CC)nc(C(=O)NCCN4CCCCC4)nc32)[C@H](O)[C@@H]1O [Example 10, 9-{(2R,3R,4S, 5S)-5-[(ethylamino)carbonyl]-3,4-dihydroxytetrahydro-2-furanyl}-6-[(1-ethylpropyl)amino]-N-[2-(1-piperidinyl)ethyl]-9H-purine-2-carboxamide]",< 40 nM
3,"CCNC(=O)[C@H]1O[C@@H](n2cnc3c(NCC(c4ccccc4)c4ccccc4)nc(C(=O)NCCN4CCC(C(C)C)CC4)nc32)[C@H](O)[C@@H]1O [Example 12, 6-[(2,2-diphenylethyl)amino]-9-{(2R,3R,4S,5S)-5-[(ethylamino)carbonyl]-3,4-dihydroxytetrahydro-2-furanyl}-N-[2-(4-isopropyl-1-piperidinyl)ethyl]-9H-purine-2-carboxamide]",< 40 nM
4,"CCNC(=O)[C@H]1O[C@@H](n2cnc3c(NCC(c4ccccc4)c4ccccc4)nc(C(=O)NCCCNC(C)C)nc32)[C@H](O)[C@@H]1O [Example 16, 6-[(2,2-diphenylethyl)amino]-9-{(2R,3R,4S,5S)-5-[(ethylamino)carbonyl]-3,4-dihydroxytetrahydro-2-furanyl}-N-[3-(isopropylamino)propyl]-9H-purine-2-carboxamide]",< 40 nM
5,"CCNC(=O)[C@H]1O[C@@H](n2cnc3c(NCC4c5ccccc5-c5ccccc54)nc(C(=O)NCCN4CCCCC4)nc32)[C@H](O)[C@@H]1O [Example 20, 9-{(2R,3R,4S,5S)-5-[(ethylamino)carbonyl]-3,4-dihydroxytetrahydro-2-furanyl}-6-[(9H-fluoren-9-ylmethyl)amino]-N-[2-(1-piperidinyl)ethyl]-9H-purine-2-carboxamide]",< 40 nM
6,"CCNC(=O)[C@H]1O[C@@H](n2cnc3c(NCC(c4ccccc4)c4ccccc4)nc(C(=O)NCCCN(CC)CC)nc32)[C@H](O)[C@@H]1O [Example 21, N-[3-(diethylamino)propyl]-6-[(2,2-diphenylethyl)amino]-9-{(2R,3R,4S,5S)-5-[(ethylamino)carbonyl]-3,4-dihydroxytetrahydro-2-furanyl}-9H-purine-2-carboxamide]",< 40 nM
7,"CCNC(=O)[C@H]1O[C@@H](n2cnc3c(NCC(c4ccccc4)c4ccccc4)nc(C(=O)NCCCN(C)C)nc32)[C@H](O)[C@@H]1O [Example 27, N-[3-(dimethylamino)propyl]-6-[(2,2-diphenylethyl)amino]-9-{(2R,3R,4S,5S)-5-[(ethylamino)carbonyl]-3,4-dihydroxytetrahydro-2-furanyl}-9H-purine-2-carboxamide]",< 40 nM
8,"CCNC(=O)[C@H]1O[C@@H](n2cnc3c(NCC(c4ccccc4)c4ccccc4)nc(C(=O)NCCN4CCC(C)CC4)nc32)[C@H](O)[C@@H]1O [Example 31, 6-[(2,2-diphenylethyl)amino]-9-{(2R,3R,4S,5S)-5-[(ethylamino)carbonyl]-3,4-dihydroxytetrahydro-2-furanyl}-N-[2-(4-methyl-1-piperidinyl)ethyl]-9H-purine-2-carboxamide]",< 40 nM
